Results as given in patent US20210308120A1, “Use of Amitriptyline for Blocking Brain Hemichannels and Method for Potentiating its Effect in Vivo” (THERANEXUS, priority 2015, published 2021).
Entries after “also recorded” stand apart in the source; their conditions may differ. One block for each compound: values may come before it.

Columns and labels:
[1] = cited from earlier work
[2] = test system: SN-CCI rats (neuropathic pain, hyperalgesia); assay: Randall & Selitto test in SN-CCI rats, chronic 14-day administration; assay type: in vivo, rat; conditions: 14 days; for Potentiation of amitriptyline anti-hyperalgesic effect: combined with amitriptyline 12 mg/kg, mefloquine or MFA 0.5 mg/kg i.p. twice a day
Excerpt: Data are the means±S.E.M. of n=8-14 rats.
Data are the means±S.E.M. of n=8-14 rats. *p<0.05, **p<0.01, ***p<0.001 as compared with “saline+saline” group at the same time, ≠p<0.05 as compared between amitriptyline groups, two-way ANOVA, Bonferroni test.
(§1) One week after their arrival, rats were anesthetized with sodium pentobarbital before exposing the common sciatic nerve. As described in Bennett's article, four chromic catgut (5-0) ligations were tied loosely proximally to the sciatic trifurcation (Bennett and Xie, 1988).
(§2) All behavioral assessments were conducted between 9 a.m. and 5 p.m. in a quiet room. An increasing pressure was applied to the right hind paw of SN-CCI (Sciatic Nerve-Chronic Constriction Injury) rat to evaluate hyperalgesia-like behavior (Viguier and al, 2013). Values correspond to the pressure threshold producing the paw withdrawal and then the vocalization of the rat.
Osmotic mini-pumps (Alzet, model 2ML2), delivering for the following 14 days amitriptyline or vehicle were subcutaneously implanted.
a) Rats were ligated on sciatic nerve and then tested with the Randall & Selitto test 14 days after surgery, to evaluate hyperalgesia quantified as pressure threshold. Neuropathic rats, characterized by a decrease of pressure threshold after surgery, were then treated during 14 days and tested by the Randall & Selitto test during this period.

[3] = test system: neuropathic mice (cuff model, allodynia); assay: Mechanical allodynia, von Frey test in sciatic nerve cuff model; assay type: in vivo, mouse; conditions: for Synergy with amitriptyline in vivo: combined with amitriptyline (FIGS. 7 and 11), 0.5 mg/kg
Description: Paw withdrawal thresholds of mice treated with either amitriptyline 6 mg/kg alone (AMIT 6) or amitriptyline 12 mg/kg alone (AMIT 12) are also shown (D). FIG. 10 (E) represents area under curve analysis.
Area under curve analysis are shown (B).
Neuropathic pain was induced to adult male C57BL/6J mice (Charles River, L'Arbresle, France) by cuffing the main branch of the right sciatic nerve (For detailed description and video illustration: Yalcin et al. 2014, J Vis Exp 89:e51608). Surgeries were performed under ketamine (68 mg/kg)/xylazine (10 mg/kg) intraperitoneal (i.p.) anesthesia (Centravet, Tadden, France). The common branch of the right sciatic nerve was exposed and a cuff of PE-20 polyethylene tubing (Harvard Apparatus, Les Ulis, France) of standardized length (2 mm) was unilaterally inserted around it (Cuff group). The shaved skin was closed using suture.
Injections were done once a day during the 17 first days of treatment, in the afternoon. As a single dose per day was ineffective, treatment was then done twice a day, morning and afternoon, from the 8 last days of treatment.
Mechanical allodynia was tested using von Frey hairs and results were expressed in grams (For detailed description and video illustration: Yalcin et al. 2014, J Vis Exp 89:e51608). Tests were done during the morning, starting at least 2 hours after lights on. Mice were placed in clear Plexiglas boxes (7 cm×9 cm×7 cm) on an elevated mesh screen. Calibrated von Frey filaments (Bioseb, Vitrolles, France) were applied to the plantar surface of each hindpaw until they just bent, in a series of ascending forces up to the mechanical threshold. Filaments were tested five times per paw and the paw withdrawal threshold was defined as the lower of two consecutive filaments for which three or more withdrawals out of the five trials were observed.
Mice were subjected to sciatic nerve cuffing and then tested with the von Frey test to evaluate allodynia quantified as pressure threshold.
Mice were subjected to sciatic nerve cuffing and then tested with the von Frey test to evaluate allodynia quantified as pressure threshold. Neuropathic mice, characterized by a decrease of pressure threshold after surgery, were then treated during 25 days and tested by the von Frey test during this period.

Cx43 hemichannels = target: T1, Cx43 hemichannels (Mus musculus, UniProt P23242); assay: Hemichannel activity by ethidium bromide uptake in LPS-treated mouse cortical astrocyte cultures; assay type: cell-based; conditions: 24 hours; for HC activity (ethidium bromide uptake) after LPS-induced opening: LPS 1 μg/mL and mefloquine or MFA 10 μM; for Degree of Cx43 hemichannel inhibition, MFA compared with mefloquine: both 10 μM, LPS 1 μg/mL
T1 construct: Astrocyte cultures were prepared from cortex of rats and mice as previously described; endogenous in cells; host or cells: secondary cultures of mouse cortical astrocytes, LPS-treated
T1 sequence (P23242 whole entry): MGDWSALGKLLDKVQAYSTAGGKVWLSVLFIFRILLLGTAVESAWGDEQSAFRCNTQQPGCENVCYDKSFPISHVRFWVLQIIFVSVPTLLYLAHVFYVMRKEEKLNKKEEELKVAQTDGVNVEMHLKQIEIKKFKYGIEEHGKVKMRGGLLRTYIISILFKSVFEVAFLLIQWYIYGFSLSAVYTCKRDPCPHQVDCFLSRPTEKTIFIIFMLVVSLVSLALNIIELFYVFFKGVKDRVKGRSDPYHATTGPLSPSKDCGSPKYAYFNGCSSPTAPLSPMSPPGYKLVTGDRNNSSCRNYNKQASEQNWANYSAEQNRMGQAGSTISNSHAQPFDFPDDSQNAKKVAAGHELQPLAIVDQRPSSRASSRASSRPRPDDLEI
Description: Astrocyte cultures were prepared from cortex of rats and mice as previously described (Meme et al., 2006). Cells were seeded on polyornithine coated 35 mm dishes (5×10^5 cells/dish) or into 100-mm diameter plastic dishes at the density of 3×10^6 cells/dish. After 8-10 days, when cells grown into 35 mm in diameter plastic culture dishes have reached confluence, 1 μM of cytosine-arabinoside was added to the culture medium. In addition, when cells grown into 100 mm plastic culture dishes reached confluence, they were harvested with trypsin-EDTA. Then, cells were re-plated (2×10^5 cells per well), as secondary cultures, on glass coverslips placed inside 24-round-well plate. Finally, they were grown to confluence and cytosine-arabinoside was added. Medium was changed twice a week for all cells until the experiments were carried out. Hemichannel activity was evaluated in secondary cultures of cortical astrocytes by Ethidium Bromide (EtBr) uptake as already published (Orellana et al, 2011). 24 h before experiment, cells were pretreated or not with 1 μg/ml LPS known to open Cx43 HeC. The day of experiment, cells were first preincubated in HEPES buffer solution. Then, cells were exposed to 5 μM EtBr for 10 min at room temperature. Cells were then washed with the same buffer before fixation with 4% paraformaldehyde in PBS. Fixed cells were examined at 40× with a confocal laser-scanning microscope. Stacks of 10 consecutive confocal images taken at 0.49 μm intervals were acquired. For each experimental condition, 6 images were captured and then analyzed with Image J program (NIH software). LPS was added to mouse cortical astrocytic cultures during 24 hours to open Cx43 hemichannels and amitriptyline was also added during the same time to evaluate its action on hemichannel activity, quantified by cell uptake of ethidium bromide.

[4] = Pharmacokinetics of amitriptyline/mefloquine in plasma and brain of mice (LC-MS); assay type: in vivo, mouse
Description: Data are presented as mean±SEM.
Adult male C57BL/6J mice (Charles River, L'Arbresle, France) were used. Mice were kept in collective cages for habituation to the facility for one week before experimental testing with food and water ad libitum. Mice were maintained on a light/dark cycle of 12 hours with light onset at 8h00 and with a controlled temperature of 21° C.±1° C.
Injections were done twice.
On day 18th of treatment, mice received the morning injection and samplings were done 2 hours after the injection. Mice were anesthetized just before sampling (ketamine 68 mg/kg, xylazine 10 mg/kg) and blood was collected by intracardiac puncture (Vacuette tubes, with lithium/heparin gel). The mouse was then decapitated, and the brain extracted and fast frozen in dry ice.
Vacuette tubes with blood were centrifugated (3000 rpm, 20 min), plasma recovered and stored at −80° C. until shipping in dry ice.

[5] = test system: SN-CCI rats (neuropathic pain, hyperalgesia); assay: Randall & Selitto test in SN-CCI rats, repeated administration every 150 minutes; assay type: in vivo, rat; conditions: mefloquine 1 mg/kg with amitriptyline i.p. every 150 min; at 90 and 240 min
Description: as §1, §2

mice subjected to FST = assay: Forced Swim Test (FST); assay type: in vivo, mouse; conditions: amitriptyline 12 mg/kg + mefloquine 1 mg/kg per os; 2nd 3-min period
Description: The FST is the most used rodent model for screening antidepressants (Porsolt et al, 1977). Mice were dropped individually in a glass cylinder (25 cm high, 9 cm diameter) filled with 10 cm 25° C. water. The experiment was recorded with a camcorder, placed in front of the glass cylinders. Video were scored at a later time by an experimenter blind to the treatments. The indices of depression-related behavior are the immobility time, the swimming time and the climbing time.
FST test evaluates the despair behavior which is commonly reversed by antidepressants. During FST, the swimming time of each mouse was measured on each 1-min period, on 1st and 2nd 3-min periods.

[6] = amitriptyline 12 mg/kg s.c. osmotic pump, mefloquine 0.5 mg/kg i.p. twice a day, vs saline

Compound: hydroxymefloquine
Presence as metabolite ([1]; in vivo): minute quantities only

HC activity (ethidium bromide uptake) after LPS-induced opening (Cx43 hemichannels): reversed this effect
Degree of Cx43 hemichannel inhibition, MFA compared with mefloquine (Cx43 hemichannels): presented a higher inhibitor effect
Compound: Cc1ccc(Cl)c(Nc2ccccc2C(=O)O)c1Cl [MFA, meclofenamic acid]
Potentiation of amitriptyline anti-hyperalgesic effect [2]: did not present any improved effect of amitriptyline
Synergy with amitriptyline in vivo [3]: not observed

Compound: O=C(O)c1cccnc1Nc1cccc(C(F)(F)F)c1 [niflumic acid]
Synergy with amitriptyline in vivo [3]: not observed

Compound: O=C(O)c1cc(C(F)(F)F)nc2c(C(F)(F)F)cccc12 [2,8-bistrifluoromethyl-4-quinoline carboxylic acid]
Time to maximum plasma concentrations ([1]; in vivo): 2 weeks
Maximum plasma concentrations, higher than those of mefloquine ([1]; relative to mefloquine): about 50%

Concentrations in blood and brain tissue ([4]; amitriptyline 6, 12 mg/kg, mefloquine 0.1, 0.3, 1 mg/kg i.p., 18 days, 2 hours after injection): dose-dependent
Effect on concentrations of amitriptyline in blood and brain ([4]; even for the highest doses of mefloquine): does not induce an increase
Mefloquine concentrations in plasma and brain at optimal in vivo potentiation ([4]; mice, FIG. 12): micromolar scale
HC activity (ethidium bromide uptake) after LPS-induced opening (Cx43 hemichannels): reversed this effect
Degree of Cx43 hemichannel inhibition, MFA compared with mefloquine (Cx43 hemichannels): less efficient
Compound: O[C@H](c1cc(C(F)(F)F)nc2c(C(F)(F)F)cccc12)[C@@H]1CCCCN1 (relative stereo) [mefloquine, (R*, S*)-(±)-α-2-piperidinyl-2,8-bis (trifluoromethyl)-4-quinolinemethanol]
Paw withdrawal threshold (pressure) [2, 6]: did not present significant effect on both responses
Vocalization threshold (pressure) [2, 6]: did not present significant effect on both responses
Potentiation of amitriptyline anti-hyperalgesic effect [2]: significantly potentiated amitriptyline hyperalgesic profile from day 6 to day 14; also recorded: significantly potentiated amitriptyline hyperalgesic at day 14
Potentiation of amitriptyline antiallodynic effect ([3]; mefloquine 0.1, 0.33, 1 mg/kg i.p. with amitriptyline 6 mg/kg, 25 days): significantly potentiated amitriptyline 6 mg/kg
Antiallodynic effect of combination ([3]; mefloquine 0.1 and 0.33 mg/kg with amitriptyline 6 mg/kg): antiallodynic effect similar to amitriptyline 12 mg/kg
Potentiation of amitriptyline anti-hyperalgesic effect [5]: significantly improved the anti-hyperalgesic effect of amitriptyline
Swimming time (mice subjected to FST): able to potentiate amitriptyline 12 mg/kg
